Holding throughout (format): in vivo
Experiment [1] relates to southern root-knot nematode (Meloidogyne incognita). Nature of the experiment: Meloidogyne incognita test. The settings on record: 20 ppm, after 14 days. The protocol: Meloidogyne incognita—Test
Solvent: 125.0 parts by weight of acetone
To produce a suitable preparation of active compound, 1 part by weight of active compound is mixed with the stated amount of solvent, and the concentrate is diluted with water to the desired concentration.
Vessels are filled with sand, a solution of the active ingredient, a suspension containing eggs and larvae of the southern root-knot nematode (Meloidogyne incognita) and salad seeds. The salad seeds germinate and the seedlings grow. Galls develop in the roots.
After 14 days the nematicidal activity is determined based on the percentage of gall formation. 100% means no galls were found and 0% means the number of galls found on the roots of the treated plants was equal to that in untreated control plants.

Experiment [2] concerns larvae of the banded cucumber beetle (Diabrotica balteata). As to the kind of experiment: Diabrotica balteata spray test. The settings on record: 168 h, after 7 days, read-out: efficacy (seedling growth); for pest or weed control at 6.4 µg/disc, 20 g/ha: 20 g/ha (=6.4 μg/well); for pest or weed control at 32 µg/disc, 100 g/ha: 100 g/ha (=32 μg/well). In short, it runs like this: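 Efficacy was read 7 days after infesting each unit with 10–20 banded cucumber beetle larvae, as % of seedlings growing like untreated, uninfested controls. Before infestation, wheat seeds germinated 1 day on agar (5 per well) were sprayed with the active ingredient. The active was formulated in acetone/DMF and diluted in water containing emulsifier.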

In experiment [3] the test system is Rhipicephalus (Boophilus) microplus larvae (strain Parkhurst, resistant against synthetic pyrethroids). Nature of the experiment: Rhipicephalus (Boophilus) microplus in-vitro contact test, larval cattle tick. Conditions: after 48 hours, read-out: efficacy (larvae dead or moribund); for pest or weed control at 5 µg/cm2, 500 g/ha: 5 μg/cm^2 (=500 g/ha); for pest or weed control at 1 µg/cm2, 100 g/ha: 1 μg/cm^2 (=100 g/ha). In short, it runs like this:
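Pyrethroid-resistant larvae (strain Parkhurst), 20–50 per tube, exposed by contact to a dried acetone film of compound (5 μg/cm² at 900 ppm) for 48 h at 27 °C and 85% humidity. Percent dead or moribund larvae scored from negative geotactic behaviour.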

The test system of experiment [4] is adult brown dog ticks (Rhipicephalus sanguineus). Nature of the experiment: Rhipicephalus sanguineus in-vitro contact test, adult brown dog ticks. Conditions: 48 h, after 48 hours, read-out: efficacy (ticks dead or moribund); for pest or weed control at 5 µg/cm2, 500 g/ha: 5 μg/cm^2 (=500 g/ha); for pest or weed control at 1 µg/cm2, 100 g/ha: 1 μg/cm^2 (=100 g/ha). In short, it runs like this: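 Acetone solution coated on glass tube inner walls (900 ppm, giving 5 μg/cm^2); after drying, 5–10 adult ticks added and kept 48 h at room temperature. Efficacy scored as percent dead or moribund, i.e., ticks unable to climb away on a 45–50 °C heating plate within 5 min.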

Experiment [5] concerns adult engorged female ticks (Rhipicephalus microplus). As to the kind of experiment: Rhipicephalus (Boophilus) microplus injection test. The settings on record: 168 h, 4 μg/animal, egg deposition after 7 days, read-out: efficacy (infertile eggs). How it is done:
Rhipicephalus (Boophilus) microplus—Injection Test
Solvent: dimethyl sulfoxide
To produce a suitable preparation of active compound, 10 mg of active compound are dissolved in 0.5 mL solvent, and the concentrate is diluted with solvent to the desired concentration.
Five adult engorged female ticks (Rhipicephalus microplus) are injected with 1 μL compound solution into the abdomen. The ticks are transferred into replica plates and incubated in a climate chamber.
After 7 days egg deposition of fertile eggs is monitored. Eggs where fertility is not visible are stored in a climate chamber till hatching after about 42 days. An efficacy of 100% means all eggs are infertile; 0% means all eggs are fertile.

Experiment [6] has as its system fall armyworm larvae (Spodoptera frugiperda). Nature of the experiment: Spodoptera frugiperda spray test. The settings on record: 168 h, maize leaf sections, after 7 days. In short, it runs like this: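 Percent larval kill read at day 7, from 0% (no caterpillars dead) to 100% (all dead). Larvae were placed on dried Zea mays leaf discs previously sprayed with test preparations made from an acetone/DMF solution diluted in 1000 ppm emulsifier-containing water.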

Experiment [7] deals with adult cat fleas (Ctenocephalides felis). As to the kind of experiment: Ctenocephalides felis in-vitro contact test, adult cat flea. The settings on record: after 48 hours, read-out: efficacy (fleas dead or moribund); for pest or weed control at 1 µg/cm2, 100 g/ha: 1 μg/cm^2 (=100 g/ha); for pest or weed control at 5 µg/cm2, 500 g/ha: 5 μg/cm^2 (=500 g/ha). Put shortly:
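Acetone solution coated onto glass tube walls; 900 ppm gives 5 μg/cm². Once dry, 5–10 adult fleas per tube held at room temperature for 48 h. Efficacy (%) is the share of fleas dead or moribund, i.e. unable to climb away on a 45–50° C heating plate.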

Experiment [8] relates to brown planthopper (Nilaparvata lugens). Nature of the experiment: Nilaparvata lugens spray test. The settings on record: 96 h, 500 g/ha, rice plants, after 4 days. The protocol:
Nilaparvata lugens—Spray Test
(§1) Solvent: 78.0 parts by weight of acetone • • 1.5 parts by weight of dimethylformamide
(§2) Emulsifier: alkylarylpolyglycol ether
To produce a suitable preparation of active compound, 1 part by weight of active compound is mixed with the stated amount of solvents and is diluted with water, containing an emulsifier concentration of 1000 ppm, to the desired concentration. Further test concentrations are prepared by dilution with emulsifier containing water.
Rice plants (Oryza sativa) are sprayed with a preparation of the active ingredient of the desired concentration and the plants are infested with the brown planthopper (Nilaparvata lugens).
After 4 days mortality in % is determined. 100% means all planthoppers have been killed and 0% means none of the planthoppers have been killed.

The subject of experiment [9] is larvae of the southern green stink bug (Nezara viridula). As to the kind of experiment: Nezara viridula spray test. Conditions: 96 h, 500 g/ha, barley plants, after 4 days. The protocol:
Nezara viridula—Spray Test
as §1, §2
To produce a suitable preparation of active compound, 1 part by weight of active compound is mixed with the stated amount of solvent, and the concentrate is diluted with water, containing an emulsifier concentration of 1000 ppm, to the desired concentration. Further test concentrations are prepared by dilution with emulsifier containing water.
Barley plants (Hordeum vulgare) infested with larvae of the southern green stink bug (Nezara viridula) are sprayed with a test solution containing the desired concentration of the active ingredient.
After 4 days mortality in % is determined. 100% means all the stink bugs have been killed; 0% means none of the stink bugs have been killed.

For `CC(NC(=O)c1cc(Cl)cc(OC(F)(F)F)c1)c1nccnc1-c1nccs1` (racemic) [Example I-52, (rac)-3-Chloro-N-{1-[3-(1,3-thiazol-2-yl)pyrazin-2-yl]ethyl}-5-(trifluoromethoxy)benzamide], the “nematicidal activity (based on gall formation)” value (“nematicidal activity” for short) in experiment [1] amounted to 90%. Further, in experiment [2], the pest or weed control at 6.4 µg/disc, 20 g/ha worked out at 100% and the pest or weed control at 32 µg/disc, 100 g/ha was found to be 100%.

Consider `CC(NC(=O)c1cc(Cl)cc(Br)c1)c1nccnc1-c1nccs1` (racemic) [Example I-54, (rac)-3-Bromo-5-chloro-N-{1-[3-(1,3-thiazol-2-yl)pyrazin-2-yl]ethyl}benzamide], for which the pest or weed control at 5 µg/cm2, 500 g/ha came out at 90% in experiment [3] and 80% in experiment [4]. Further, the “nematicidal activity” value in [1] is recorded as 90%. In addition, the pest or weed control at 32 µg/disc, 100 g/ha in [2] turned out to be 100%.

Usually mortality stands for the share of the test organisms that died. For `CC(NC(=O)c1cc(C(F)(F)F)cc(C(F)(F)F)c1)c1nccnc1-c1ncc(C(=O)N(CC2CC2)C(C)C)s1` (racemic) [Example I-63, (rac)-2-(3-{1-[3,5-Bis(trifluoromethyl)benzamido]ethyl}pyrazin-2-yl)-N-(cyclopropylmethyl)-N-(propan-2-yl)-1,3-thiazole-5-carboxamide], the “nematicidal activity” value in experiment [1] amounted to 90%. In addition, the pest or weed control at 0.004 mg in [5] worked out at 100%. The compound also gave a mortality at 100 g/ha in experiment [6] of 100%. In addition, in experiment [2], the pest or weed control at 6.4 µg/disc, 20 g/ha was found to be 100% and the pest or weed control at 32 µg/disc, 100 g/ha stood at 100%.

For the compound `CC(NC(=O)c1cc(C(F)(F)F)cc(C(F)(F)F)c1)c1nccnc1-c1ncc(C#N)s1` (racemic) [Example I-82, (rac)-N-{1-[3-(5-Cyano-1,3-thiazol-2-yl)pyrazin-2-yl]ethyl}-3,5-bis(trifluoromethyl)benzamide], in [3], the pest or weed control at 1 µg/cm2, 100 g/ha turned out to be 100% and the pest or weed control at 5 µg/cm2, 500 g/ha was determined as 100%. For the same compound, in experiment [7], the pest or weed control at 1 µg/cm2, 100 g/ha came out at 100% and the pest or weed control at 5 µg/cm2, 500 g/ha came out at 100%. Moreover, the “nematicidal activity” value in experiment [1] turned out to be 100%. In [2], the pest or weed control at 32 µg/disc, 100 g/ha was 100%.

As to `CCN(C)C(=O)c1cnc(-c2nccnc2C(C)N(CC2CC2)C(=O)c2cc(C(F)(F)F)cc(C(F)(F)F)c2)s1` (racemic) [Example I-83, (rac)-2-{3-[1-{[3,5-Bis(trifluoromethyl)benzoyl](cyclopropylmethyl)amino}ethyl]pyrazin-2-yl}-N-ethyl-N-methyl-1,3-thiazole-5-carboxamide], the pest or weed control at 1 µg/cm2, 100 g/ha in [3] and in experiment [7] was 100% in each case. The results for the pest or weed control at 5 µg/cm2, 500 g/ha in [3], in [7] and in [4] were 100%, 100% and 80%, respectively. Further, the mortality at 500 g/ha in experiment [8] and in experiment [9] was 100% each time. The same compound displayed a mortality at 100 g/ha in [6] of 100%. For the same compound, in [2], the pest or weed control at 6.4 µg/disc, 20 g/ha was determined as 100%. For the same compound, the pest or weed control at 32 µg/disc, 100 g/ha in experiment [2] is 100%.

Regarding `CC(NC(=O)c1cc(Cl)cc(C(F)(F)F)c1)c1nccnc1-n1cc(C(=O)N(C)CC2CC2)cn1` (racemic) [Example I-132, (rac)-1-(3-{1-[3-Chloro-5-(trifluoromethyl)benzamido]ethyl}pyrazin-2-yl)-N-(cyclopropylmethyl)-N-methyl-1H-pyrazole-4-carboxamide], the pest or weed control at 1 µg/cm2, 100 g/ha in [3], in experiment [7] and in experiment [4] was 100% throughout. In addition, the pest or weed control at 5 µg/cm2, 500 g/ha in [3], in experiment [7] and in experiment [4] was 100% throughout. The mortality at 500 g/ha in experiment [8] and in experiment [9] was 100% in each case. Moreover, the mortality at 100 g/ha in [6] is 100%. Also, in [2], the pest or weed control at 6.4 µg/disc, 20 g/ha came to 100%. Also, the pest or weed control at 32 µg/disc, 100 g/ha in experiment [2] turned out to be 100%.

As for `CC(NC(=O)c1cc(Br)cc(OC(F)(F)F)c1)c1nccnc1-n1cc(C(=O)N(C)CC2CC2)cn1` (racemic) [Example I-134, (rac)-1-(3-{1-[3-Bromo-5-(trifluoromethoxy)benzamido]ethyl}pyrazin-2-yl)-N-(cyclopropylmethyl)-N-methyl-1H-pyrazole-4-carboxamide], the pest or weed control at 1 µg/cm2, 100 g/ha in experiment [3] was 100%; in [7] it was 80%; in [4], 100%. Also, the pest or weed control at 5 µg/cm2, 500 g/ha in [3], in [7] and in experiment [4] was 100% in each case. For the same compound, the mortality at 500 g/ha in experiment [8] and in [9] was 100% in each case. The same compound came in with a mortality at 100 g/ha in experiment [6] of 100%. Also, the pest or weed control at 6.4 µg/disc, 20 g/ha in [2] was 100%. Besides, the pest or weed control at 32 µg/disc, 100 g/ha in [2] was 100%.

For the compound `CC(NC(=O)c1cc(OC(F)(F)F)cc(S(C)(=O)=O)c1)c1nccnc1-c1ncc(C(=O)N(C)CC2CC2)s1` (racemic) [Example I-140, (rac)-N-(Cyclopropylmethyl)-2-(3-{1-[3-(methanesulfonyl)-5-(trifluoromethoxy)benzamido]ethyl}pyrazin-2-yl)-N-methyl-1,3-thiazole-5-carboxamide], in experiment [8], the mortality at 500 g/ha worked out at 100%. The pest or weed control at 5 µg/cm2, 500 g/ha in [7] turned out to be 90%. The compound further displayed a mortality at 100 g/ha in experiment [6] of 100%.

Turning to `CC(NC(=O)c1cc(C(F)F)cc(C(F)F)c1)c1nccnc1-c1ncc(C(=O)N(C)CC2CC2)s1` (racemic) [Example I-141, (rac)-2-(3-{1-[3,5-Bis(difluoromethyl)benzamido]ethyl}pyrazin-2-yl)-N-(cyclopropylmethyl)-N-methyl-1,3-thiazole-5-carboxamide], the pest or weed control at 1 µg/cm2, 100 g/ha in experiment [3] is 100%. For the same compound, the pest or weed control at 5 µg/cm2, 500 g/ha in experiment [3] came to 90%; in experiment [7], 100%. In addition, the mortality at 500 g/ha in experiment [8] and in [9] was 100% in each case. Also, in [6], the mortality at 100 g/ha came out at 100%. Moreover, the pest or weed control at 32 µg/disc, 100 g/ha in experiment [2] was 100%.
